# Measured values published in patent US10689362B2, “Quinoxaline compounds as type III receptor tyrosine kinase inhibitors” (Development Center for Biotechnology, priority 2016, dated 2020).
# Tests used:
# [1] = test system: CSF-1-dependent M-NFS-60 mouse myeloid leukemia cell; test: M-NFS-60 cell proliferation assay (CellTiter-96); assay type: cell-based; settings: Cytotoxicity, M-NFS-60 cells, 72 hours
# In short: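 CSF-1-dependent M-NFS-60 cells seeded at 2000 cells/well, settled overnight at 37 °C, 5% CO2, then exposed to increasing compound concentrations for 72 h. Viability read by CellTiter 96 AQueous One reagent (4 h) at 490 nm absorbance.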
# [2] = test system: MV4-11 human acute myeloid leukemia cell with FLT3-ITD mutation; test: MV4-11 cell proliferation assay (CellTiter-96); assay type: cell-based; settings: Cytotoxicity, MV4-11 cells, 72 hours
# In short: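 MV4-11 cells (FLT3-ITD, FLT3-dependent growth) seeded at 6500 cells/well, incubated overnight at 37° C., 5% CO2, then exposed to increasing compound concentrations for 72 hours. Viability read by CellTiter96 AQueous One reagent (4 hours), absorbance at 490 nm.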
# CSF-1R kinase = CSF-1R kinase (Homo sapiens (Human), UniProt P07333); test: CSF-1R kinase assay (AlphaScreen); assay type: biochemical; settings: class symbol
# Procedure: Inhibition of CSF-1R kinase activity by a test compound disclosed herein was estimated by AlphaScreen (PerkinElmer). […] Reactions were incubated at 30° C. for 45 min and stopped by adding 5 μL of 50 mM EDTA. Analysis of resulting product using an AlphaScreen kit, and counted with Enspire Alpha (PerkinElmer). […] The IC50 values of quinoxaline compounds of this invention against CSF-1R kinase were determined using the GraphPad Prism 5 software.
# c-KIT kinase = c-KIT kinase (Homo sapiens (Human), UniProt P10721); test: c-KIT kinase assay (radiometric); assay type: biochemical
# In short: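 Recombinant c-Kit (20 ng) with 2 μg Poly-(Glu4:Tyr1) in MOPS pH 7.0 buffer with MgCl2/MnCl2, 10 μM ATP plus [^33P]-ATP, 4% DMSO final, 60 min at 30° C. Stopped with phosphoric acid, filter-captured and scintillation counted; IC50 from curve fit.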
# PDGFRβ kinase = PDGFRβ kinase (Homo sapiens (Human), UniProt P09619); test: PDGFRβ kinase assay (radiometric); assay type: biochemical
# In short: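 Radiometric assay: recombinant PDGFRβ with poly(Glu4:Tyr1) in MOPS pH 7.0 buffer containing Mg2+/Mn2+, 10 μM ATP plus [33P]-ATP, and compound at 4% DMSO final. Incubated 60 min at 30° C, stopped with phosphoric acid, filter-captured and scintillation-counted. IC50 from curve fitting.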
# FLT3 kinase = FLT3 kinase (Homo sapiens (Human), UniProt P36888); test: FLT3 kinase assay (radiometric); assay type: biochemical
# In short: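 Recombinant FLT3 (5 ng) phosphorylating poly(Glu4:Tyr1) (2 μg) with 10 μM ATP plus [^33P]-ATP in MOPS pH 7.0 buffer, 4% DMSO final, 60 min at 30° C. Reaction stopped with phosphoric acid, filter-captured and scintillation-counted; IC50 derived from dose-response.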
# [3] = test system: THP-1 human acute monocytic leukemia cell harboring NRAS G12D mutation; test: THP-1 cell proliferation assay (counter screen, CellTiter-96); assay type: cell-based; settings: Cytotoxicity, THP-1 cells (counter screen), 72 hours
# In short: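 THP-1 cells, RTK-independent owing to NRAS G12D, seeded at 5000/well, incubated overnight at 37 °C/5% CO2, then exposed to increasing compound concentrations for 72 h. CellTiter96 AQueous One reagent added for 4 h; viability from absorbance at 490 nm.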
# [4] = test system: osteoclast precursors (osteoclast differentiation); test: Osteoclast tartrate-resistant acid phosphatase assay; assay type: cell-based; settings: 168 h, at 1 μM treatment, 7 days, RANKL and M-CSF, read-out: inhibition activity against osteoclast differentiation
# In short: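 Differentiation inhibition was scored at 1 μM compound in duplicate, using supernatant TRAP activity read at 550 nm with an acid phosphatase kit.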
# [5] = test system: Kasumi-1 human acute myeloid leukemia cell with c-KIT N822K activating mutation; test: Kasumi-1 cell proliferation assay (CellTiter-96); assay type: cell-based; settings: Cytotoxicity, Kasumi-1 cells, 72 hours
# In short: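 Kasumi-1 cells, seeded at 64000 cells/well and incubated overnight at 37 °C, were exposed to increasing compound concentrations for 72 h. Viability was measured by CellTiter96 AQueous One reagent (4 h) and absorbance at 490 nm.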
# Chain of c-KIT kinase (P10721 26-976): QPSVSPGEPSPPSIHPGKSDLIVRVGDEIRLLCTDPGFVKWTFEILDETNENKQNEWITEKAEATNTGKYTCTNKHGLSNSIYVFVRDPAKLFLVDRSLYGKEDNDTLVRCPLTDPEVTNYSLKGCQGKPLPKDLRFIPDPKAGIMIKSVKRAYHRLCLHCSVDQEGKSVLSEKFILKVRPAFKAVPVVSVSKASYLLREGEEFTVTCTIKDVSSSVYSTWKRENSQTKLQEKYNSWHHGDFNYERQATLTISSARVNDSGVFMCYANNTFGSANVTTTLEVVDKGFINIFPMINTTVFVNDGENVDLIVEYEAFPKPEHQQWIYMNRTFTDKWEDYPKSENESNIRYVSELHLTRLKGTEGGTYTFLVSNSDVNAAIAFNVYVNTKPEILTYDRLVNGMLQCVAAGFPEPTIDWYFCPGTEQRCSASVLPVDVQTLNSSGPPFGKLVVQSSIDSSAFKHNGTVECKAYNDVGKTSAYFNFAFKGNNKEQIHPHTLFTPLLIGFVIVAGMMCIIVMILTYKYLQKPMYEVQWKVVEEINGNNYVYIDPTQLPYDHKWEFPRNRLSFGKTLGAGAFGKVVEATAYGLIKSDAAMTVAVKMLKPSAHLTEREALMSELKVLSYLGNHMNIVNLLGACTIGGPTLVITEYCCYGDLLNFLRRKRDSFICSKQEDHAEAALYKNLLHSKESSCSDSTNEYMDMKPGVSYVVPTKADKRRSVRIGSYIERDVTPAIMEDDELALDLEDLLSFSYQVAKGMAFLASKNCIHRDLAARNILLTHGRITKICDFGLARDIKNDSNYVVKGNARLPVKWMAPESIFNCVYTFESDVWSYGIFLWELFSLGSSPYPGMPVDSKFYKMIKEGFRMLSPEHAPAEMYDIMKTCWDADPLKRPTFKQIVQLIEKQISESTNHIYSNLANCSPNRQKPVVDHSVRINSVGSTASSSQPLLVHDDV
# Chain of FLT3 kinase (P36888 27-993): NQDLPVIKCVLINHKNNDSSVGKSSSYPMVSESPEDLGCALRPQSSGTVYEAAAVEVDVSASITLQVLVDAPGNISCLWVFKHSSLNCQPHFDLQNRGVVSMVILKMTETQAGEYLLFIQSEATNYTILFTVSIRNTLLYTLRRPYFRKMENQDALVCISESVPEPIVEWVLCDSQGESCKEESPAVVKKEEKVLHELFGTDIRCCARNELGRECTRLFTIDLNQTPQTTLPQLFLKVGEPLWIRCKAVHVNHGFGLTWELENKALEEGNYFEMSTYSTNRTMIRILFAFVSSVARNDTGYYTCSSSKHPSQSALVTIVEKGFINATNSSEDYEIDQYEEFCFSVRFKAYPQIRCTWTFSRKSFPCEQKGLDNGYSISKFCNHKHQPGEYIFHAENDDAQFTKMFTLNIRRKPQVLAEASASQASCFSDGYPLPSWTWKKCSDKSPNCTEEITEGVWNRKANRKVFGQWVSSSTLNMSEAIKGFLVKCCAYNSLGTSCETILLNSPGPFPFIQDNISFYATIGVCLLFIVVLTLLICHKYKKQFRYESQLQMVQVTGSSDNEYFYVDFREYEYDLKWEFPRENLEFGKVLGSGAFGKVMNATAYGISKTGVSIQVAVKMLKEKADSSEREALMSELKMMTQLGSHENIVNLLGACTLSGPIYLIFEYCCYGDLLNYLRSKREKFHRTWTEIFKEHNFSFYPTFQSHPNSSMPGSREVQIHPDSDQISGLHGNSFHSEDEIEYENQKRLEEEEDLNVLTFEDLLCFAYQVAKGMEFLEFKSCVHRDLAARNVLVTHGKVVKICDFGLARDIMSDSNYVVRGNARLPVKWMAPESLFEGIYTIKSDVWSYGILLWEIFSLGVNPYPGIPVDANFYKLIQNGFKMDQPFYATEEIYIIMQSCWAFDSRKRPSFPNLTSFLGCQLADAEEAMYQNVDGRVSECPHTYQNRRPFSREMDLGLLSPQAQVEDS
# Chain of CSF-1R kinase (P07333 20-972): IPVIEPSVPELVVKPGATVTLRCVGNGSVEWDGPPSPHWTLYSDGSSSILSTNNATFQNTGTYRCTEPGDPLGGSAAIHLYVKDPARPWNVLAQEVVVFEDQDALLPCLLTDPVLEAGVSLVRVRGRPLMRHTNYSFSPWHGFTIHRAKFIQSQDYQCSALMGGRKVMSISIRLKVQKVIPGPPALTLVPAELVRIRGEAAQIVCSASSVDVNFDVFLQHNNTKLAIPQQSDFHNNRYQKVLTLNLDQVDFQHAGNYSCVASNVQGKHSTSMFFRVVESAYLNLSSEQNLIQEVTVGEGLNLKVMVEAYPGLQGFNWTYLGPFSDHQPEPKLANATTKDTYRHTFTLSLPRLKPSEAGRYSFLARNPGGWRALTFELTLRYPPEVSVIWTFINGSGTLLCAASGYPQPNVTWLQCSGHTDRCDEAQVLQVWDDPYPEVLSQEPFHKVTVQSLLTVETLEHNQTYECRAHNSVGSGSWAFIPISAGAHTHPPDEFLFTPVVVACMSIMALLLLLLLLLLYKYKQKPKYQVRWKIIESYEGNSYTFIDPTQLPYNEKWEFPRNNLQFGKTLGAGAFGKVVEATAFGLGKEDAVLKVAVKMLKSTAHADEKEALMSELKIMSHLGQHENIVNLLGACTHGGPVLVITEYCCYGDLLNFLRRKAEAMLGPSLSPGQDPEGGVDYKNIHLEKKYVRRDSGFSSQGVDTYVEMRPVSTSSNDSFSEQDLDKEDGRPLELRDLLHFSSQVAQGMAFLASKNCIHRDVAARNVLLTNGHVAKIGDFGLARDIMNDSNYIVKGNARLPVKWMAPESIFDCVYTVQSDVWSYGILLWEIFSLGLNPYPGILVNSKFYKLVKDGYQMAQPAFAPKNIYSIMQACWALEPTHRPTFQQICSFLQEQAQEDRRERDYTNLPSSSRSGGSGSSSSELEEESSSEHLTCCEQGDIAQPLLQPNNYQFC
# Chain of PDGFRβ kinase (P09619 33-1106): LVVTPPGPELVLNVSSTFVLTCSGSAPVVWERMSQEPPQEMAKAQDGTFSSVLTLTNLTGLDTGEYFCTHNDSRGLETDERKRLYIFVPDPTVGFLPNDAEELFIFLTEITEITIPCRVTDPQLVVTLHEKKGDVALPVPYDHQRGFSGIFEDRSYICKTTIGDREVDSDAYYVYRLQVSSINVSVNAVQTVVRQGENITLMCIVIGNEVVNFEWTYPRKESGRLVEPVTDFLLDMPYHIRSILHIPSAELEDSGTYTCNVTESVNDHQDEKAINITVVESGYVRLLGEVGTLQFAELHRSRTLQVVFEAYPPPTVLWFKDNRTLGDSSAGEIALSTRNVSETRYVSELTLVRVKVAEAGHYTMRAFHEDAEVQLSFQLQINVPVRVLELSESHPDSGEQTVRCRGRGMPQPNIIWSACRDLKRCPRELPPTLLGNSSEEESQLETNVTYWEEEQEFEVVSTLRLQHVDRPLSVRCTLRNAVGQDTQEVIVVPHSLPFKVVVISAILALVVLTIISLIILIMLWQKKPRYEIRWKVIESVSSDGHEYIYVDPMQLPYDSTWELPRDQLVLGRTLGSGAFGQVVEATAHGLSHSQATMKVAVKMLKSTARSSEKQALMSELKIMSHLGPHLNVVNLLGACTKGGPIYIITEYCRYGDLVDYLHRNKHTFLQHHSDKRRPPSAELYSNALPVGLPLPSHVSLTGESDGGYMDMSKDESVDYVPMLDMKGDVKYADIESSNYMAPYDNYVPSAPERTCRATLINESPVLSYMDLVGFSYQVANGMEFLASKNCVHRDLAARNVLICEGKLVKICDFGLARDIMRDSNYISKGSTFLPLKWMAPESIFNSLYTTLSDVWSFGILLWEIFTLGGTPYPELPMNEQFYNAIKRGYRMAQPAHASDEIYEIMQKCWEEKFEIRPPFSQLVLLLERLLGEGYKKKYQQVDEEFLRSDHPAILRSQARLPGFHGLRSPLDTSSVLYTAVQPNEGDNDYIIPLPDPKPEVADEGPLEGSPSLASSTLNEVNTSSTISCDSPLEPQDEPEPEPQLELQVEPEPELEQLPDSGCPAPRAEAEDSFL
Compound,IC50 (CSF-1R kinase) [µM],IC50 (c-KIT kinase; bound) [µM],IC50 (PDGFRβ kinase; bound) [µM],IC50 (FLT3 kinase; bound) [µM],IC50 (c-KIT kinase; class symbol) [µM],IC50 (PDGFRβ kinase; class symbol) [µM],IC50 (FLT3 kinase; class symbol) [µM],IC50 [1] [µM],IC50 [2] [µM],IC50 [3] [µM],inhibition at 1 µM [4] [%],IC50 [5] [µM]
"CNc1cnc2ccc(Nc3ccc(OCc4ccc(OC)cc4)c(OC)c3)cc2n1 [Example 25, N^7-(3-methoxy-4-((4-methoxybenzyl)oxy)phenyl)-N^2-methylquinoxaline-2,7-diamine]",< 0.1,–,> 1,> 1,< 0.1,–,–,< 0.3,1 to 10,1 to 10,> 50,0.3 to 1
"COc1ccc(COc2ccc(Nc3ccc4ncc(N5CCC5)nc4c3C#N)cc2OC)cc1 [Example 83, 3-(azetidin-1-yl)-6-((3-methoxy-4-((4-methoxybenzyl)oxy)phenyl)amino)quinoxaline-5-carbonitrile]",< 0.1,–,> 1,> 1,< 0.1,–,–,< 0.3,> 10,> 10,> 50,< 0.3
"COc1ccc(COc2ccc(N(C)c3ccc4ncc(N5CCOCC5)nc4c3C#N)cc2OC)cc1 [Example 60, 6-((3-methoxy-4-((4-methoxybenzyl)oxy)phenyl)(methyl)amino)-3-morpholinoquinoxaline-5-carbonitrile]",< 0.1,–,> 1,> 1,0.3 to 1,–,–,< 0.3,1 to 10,> 10,> 50,1 to 10
"COc1ccc(COc2ccc(Nc3ccc4ncc(NC5CCN(Cc6ccccc6)CC5)nc4c3C#N)cc2OC)cc1 [Example 77, 3-((1-benzylpiperidin-4-yl)amino)-6-((3-methoxy-4-((4-methoxybenzyl)oxy)phenyl)amino)quinoxaline-5-carbonitrile]",< 0.1,–,> 1,> 1,0.3 to 1,–,–,0.3 to 1,1 to 10,1 to 10,> 50,1 to 10
"COc1cc(Nc2ccc3ncc(N4CC(N(C)C)C4)nc3c2C#N)ccc1OCc1ccc(C)nc1 [Example 136, 3-(3-(dimethylamino)azetidin-1-yl)-6-((3-methoxy-4-((6-methylpyridin-3-yl)methoxy)phenyl)amino)quinoxaline-5-carbonitrile]",< 0.1,–,> 1,> 1,< 0.1,–,–,0.3 to 1,1 to 10,> 10,> 50,1 to 10
"COCCN1CCN(c2cnc3ccc(Nc4ccc(OCc5ccc(C)nc5)c(OC)c4)c(C#N)c3n2)CC1 [Example 100, 6-((3-methoxy-4-((6-methylpyridin-3-yl)methoxy)phenyl)amino)-3-(4-(2-methoxyethyl)piperazin-1-yl)quinoxaline-5-carbonitrile]",< 0.1,–,> 1,> 1,0.1 to 0.3,–,–,< 0.3,1 to 10,> 10,> 50,0.3 to 1
"COc1ccc(COc2ccc(Nc3ccc4ncc(N5CCOCC5)nc4c3C#N)c(F)c2)cc1 [Example 53, 6-((2-fluoro-4-((4-methoxybenzyl)oxy)phenyl)amino)-3-morpholinoquinoxaline-5-carbonitrile]",< 0.1,–,> 1,–,0.3 to 1,–,0.3 to 1,0.3 to 1,< 0.3,> 10,> 50,1 to 10
"COc1cc(Nc2ccc3ncc(N4CCOCC4)nc3c2C#N)ccc1OCc1cccc(F)c1 [Example 91, 6-((4-((3-fluorobenzyl)oxy)-3-methoxyphenyl)amino)-3-morpholinoquinoxaline-5-carbonitrile]",< 0.1,–,> 1,> 1,0.1 to 0.3,–,–,0.3 to 1,1 to 10,> 10,> 50,1 to 10
"COc1ccc(COc2ccc(Nc3ccc4ncc(N5CCC(C)CC5)nc4c3C#N)cc2OC)cn1 [Example 69, 6-((3-methoxy-4-((6-methoxypyridin-3-yl)methoxy)phenyl)amino)-3-(4-methylpiperidin-1-yl)quinoxaline-5-carbonitrile]",< 0.1,> 1,> 1,> 1,–,–,–,0.3 to 1,> 10,> 10,> 50,> 10

# Second part, led by results:
IC50 (CSF-1R kinase) [µM],IC50 (c-KIT kinase; bound) [µM],IC50 (PDGFRβ kinase; bound) [µM],IC50 (FLT3 kinase; bound) [µM],IC50 (c-KIT kinase; class symbol) [µM],IC50 (PDGFRβ kinase; class symbol) [µM],IC50 (FLT3 kinase; class symbol) [µM],Compound,IC50 [1] [µM],IC50 [2] [µM],IC50 [3] [µM],inhibition at 1 µM [4] [%],IC50 [5] [µM]
< 0.1,> 1,> 1,> 1,–,–,–,"COc1ccc(COc2ncc(Nc3ccc4ncc(N5CCOCC5)nc4c3C#N)cc2OC)cn1 [Example 144, 6-((5-methoxy-6-((6-methoxypyridin-3-yl)methoxy)pyridin-3-yl)amino)-3-morpholinoquinoxaline-5-carbonitrile]",< 0.3,> 10,> 10,> 50,> 10
< 0.1,–,> 1,> 1,0.1 to 0.3,–,–,"CCn1cc(COc2ccc(Nc3ccc4ncc(N5CCOCC5)nc4c3C#N)cc2OC)cn1 [Example 116, 6-((3-methoxy-4-((1-ethyl-1H-pyrazol-4-yl)methoxy)phenyl)amino)-3-morpholinoquinoxaline-5-carbonitrile]",< 0.3,1 to 10,> 10,> 50,0.3 to 1
< 0.1,–,> 1,> 1,< 0.1,–,–,"COc1cc(Nc2ccc3ncc(N4CC(C)(OC)C4)nc3c2C#N)ccc1OCc1ccc(C)nc1 [Example 138, 3-(3-methoxy-3-methylazetidin-1-yl)-6-((3-methoxy-4-((6-methyl-pyridin-3-yl)methoxy)phenyl)amino)quinoxaline-5-carbonitrile]",< 0.3,1 to 10,> 10,> 50,< 0.3
< 0.1,–,> 1,> 1,< 0.1,–,–,"COc1cc(Nc2ccc3ncc(N4CCOCC4)nc3c2C#N)ccc1OCc1ccsc1 [Example 126, 6-((3-methoxy-4-(thiophen-3-ylmethoxy)phenyl)amino)-3-morpholinoquinoxaline-5-carbonitrile]",0.3 to 1,1 to 10,> 10,> 50,< 0.3
< 0.1,–,> 1,> 1,< 0.1,–,–,"COCc1ccc(COc2ccc(Nc3ccc4ncc(N5CCOCC5)nc4c3C#N)cc2OC)nc1 [Example 125, 6-((3-methoxy-4-((5-(methoxymethyl)pyridin-2-yl)methoxy)phenyl)amino)-3-morpholinoquinoxaline-5-carbonitrile]",1 to 10,> 10,> 10,> 50,< 0.3
< 0.1,–,–,> 1,< 0.1,0.3 to 1,–,"COc1ccc(COc2ccc(Nc3ccc4ncc(N5CCCC5)nc4c3C#N)cc2OC)cc1 [Example 62, 6-((3-methoxy-4-((4-methoxybenzyl)oxy)phenyl)amino)-3-(pyrrolidin-1-yl)quinoxaline-5-carbonitrile]",< 0.3,> 10,> 10,> 50,< 0.3
